Results from the supplement of paper PMC11061612.

Assays:
Assay in all cases: combination Emax (second highest fraction inhibited in the dose matrix, 72 h); higher = more inhibition; extreme values may be limits of the assay
[1] = test system: HeLa (Cervical Carcinoma)
Summary of the method: (§1)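 Cell lines in DMEM/F12 or RPMI with 10% FBS were plated in 1536-well plates, held 24 hours at 37°C, 5% CO2, then given two-drug dose matrices for 72 hours (DMSO typically 0.2%). Viability was read by CellTiter-Glo 2.0 luminescence and scaled as inhibition from 0 (vehicle wells) to 1 (blank wells). Combination Emax is the second-highest inhibition in the matrix; Bliss excess is observed combination effect minus expected EA + EB − EA·EB, EA and EB being single-agent effects.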

[2] = test system: L-428 (Hodgkin's Lymphoma)
Summary of the method: as §1

[3] = test system: FTC-133 (Thyroid Gland Carcinoma)
Summary of the method: as §1

[4] = test system: SNU-449 (Hepatocellular Carcinoma)
Summary of the method: as §1

[5] = test system: SW1573 (Lung Adenocarcinoma)
Summary of the method: as §1

[6] = test system: TGBC1TKB (Biliary Tract Carcinoma)
Summary of the method: as §1

EW-11 (Ewing's Sarcoma) = test system: EW-11 (Ewing's Sarcoma)
Summary of the method: as §1

BPH-1 (Non-Cancerous) = test system: BPH-1 (Non-Cancerous)
Summary of the method: as §1

[7] = test system: LS-123 (Colorectal Carcinoma)
Summary of the method: as §1

CAL-72 (Osteosarcoma) = test system: CAL-72 (Osteosarcoma)
Summary of the method: as §1

[8] = test system: WSU-NHL (B-Cell Non-Hodgkin's Lymphoma)
Summary of the method: as §1

[9] = test system: HuCCT1 (Biliary Tract Carcinoma)
Summary of the method: as §1

[10] = test system: LNZTA3WT4 (Low Grade Glioma)
Summary of the method: as §1

[11] = test system: HH (T-Cell Non-Hodgkin's Lymphoma)
Summary of the method: as §1

[12] = test system: ESS-1 (Other Solid Carcinomas)
Summary of the method: as §1

[13] = test system: BFTC-909 (Kidney Carcinoma)
Summary of the method: as §1

LOXIMVI (Melanoma) = test system: LOXIMVI (Melanoma)
Summary of the method: as §1

[14] = test system: NUGC-4 (Gastric Carcinoma)
Summary of the method: as §1

[15] = test system: ALL-PO (B-Lymphoblastic Leukemia)
Summary of the method: as §1

[16] = test system: OE21 (Esophageal Squamous Cell Carcinoma)
Summary of the method: as §1

| SMILES | combination Emax [1] | combination Emax [2] | combination Emax [3] | combination Emax [4] | combination Emax [5] | combination Emax [6] | combination Emax (EW-11 (Ewing's Sarcoma)) | combination Emax (BPH-1 (Non-Cancerous)) | combination Emax [7] | combination Emax (CAL-72 (Osteosarcoma)) | combination Emax [8] | combination Emax [9] | combination Emax [10] | combination Emax [11] | combination Emax [12] | combination Emax [13] | combination Emax (LOXIMVI (Melanoma)) | combination Emax [14] | combination Emax [15] | combination Emax [16] |
| --- | --- | --- | --- | --- | --- | --- | --- | --- | --- | --- | --- | --- | --- | --- | --- | --- | --- | --- | --- | --- |
| CN(C)CCCOc1ccc(-c2ccc3ncc4c(c3c2)n(C2CCOCC2)c(=O)n4C)cn1 [AZD0156] + CCN(CCO)CCCOc1ccc2c(Nc3cc(CC(=O)Nc4cccc(F)c4)[nH]n3)ncnc2c1 [AZD2811] (first compound max 1 µM, 7x7, partner max 1 µM) | 0.156 | 0.187 | 0.284 | 0.0548 | 0.168 | 0.0674 | 0.409 | 0.459 | 0.161 | 0.286 | 0.879 | 0.137 | 0.105 | 0.151 | 0.606 | 0.127 | 0.4 | 0.0855 | 0.977 | 0.22 |
| COc1cccc(OCCCN)c1-c1cc(Nc2cnc(C#N)cn2)n[nH]1 [Prexasertib] + CCc1c2c(nc3ccc(O)cc13)-c1cc3c(c(=O)n1C2)COC(=O)[C@]3(O)CC [SN-38] (first compound max 1 µM, 7x7, partner max 0.3 µM) | 0.865 | 0.979 | 1 | 0.531 | 0.925 | 0.632 | 0.749 | 0.972 | 0.871 | 0.949 | 1 | 0.875 | 0.949 | 0.829 | 1 | 0.996 | 0.875 | 0.484 | 0.993 | 0.813 |
| NC1(C(=O)N[C@@H](CCO)c2ccc(Cl)cc2)CCN(c2ncnc3[nH]ccc23)CC1 [Capivasertib] + CC(=O)c1c(C)c2cnc(Nc3ccc(N4CCNCC4)cn3)nc2n(C2CCCC2)c1=O [Palbociclib] (first compound max 10 µM, 7x7, partner max 10 µM) | 0.196 | 0.436 | 0.565 | 0.379 | 0.382 | 0.344 | 0.496 | 0.518 | 0.364 | 0.481 | 0.899 | 0.43 | 0.562 | 0.426 | 0.593 | 0.704 | 0.688 | 0.305 | 0.688 | 0.714 |
| Cc1c2c(nn1C)CSCc1cc(n(C)n1)CSc1cc(c3ccccc3c1)OCCCc1c(C(=O)O)n(C)c3c-2c(Cl)ccc13 [AZD5991] + CN(C)CCCOc1ccc(-c2ccc3ncc4c(c3c2)n(C2CCOCC2)c(=O)n4C)cn1 [AZD0156] (first compound max 1 µM, 7x7, partner max 1 µM) | 0.46 | 0.23 | 0.719 | 0.25 | 0.214 | 0.219 | 0.803 | 0.733 | 0.162 | 0.328 | 0.92 | 0.286 | 0.227 | 0.756 | 0.36 | 0.239 | 0.363 | 0.238 | 1 | 0.345 |
| Cn1cnc2c(F)c(Nc3ccc(Br)cc3Cl)c(C(=O)NOCCO)cc21 [Selumetinib] + C[C@@H]1COCCN1C2=NC(=NC(=C2)C3(CC3)[S@](=N)(=O)C)C4=C5C=CNC5=NC=C4 [AZD6738] (first compound max 10 µM, 7x7, partner max 10 µM) | 0.486 | 0.69 | 0.724 | 0.111 | 0.284 | 0.347 | 0.592 | 0.503 | 0.517 | 0.752 | 0.817 | 0.703 | 0.712 | 0.175 | 0.953 | 0.797 | 0.778 | 0.607 | 0.96 | 0.837 |
| CN(C)CCCOc1ccc(-c2ccc3ncc4c(c3c2)n(C2CCOCC2)c(=O)n4C)cn1 [AZD0156] + C=CCn1c(=O)c2cnc(Nc3ccc(N4CCN(C)CC4)cc3)nc2n1-c1cccc(C(C)(C)O)n1 [AZD1775] (first compound max 1 µM, partner max 1 µM) | 0.498 | 0.824 | 0.536 | 0.142 | 0.268 | 0.134 | 0.486 | 0.457 | 0.609 | 0.778 | 0.948 | 0.717 | 0.783 | 0.442 | 0.973 | 0.67 | 0.753 | 0.273 | 0.959 | 0.567 |
| Cn1cnc2c(F)c(Nc3ccc(Br)cc3Cl)c(C(=O)NOCCO)cc21 [Selumetinib] + CCN(CCO)CCCOc1ccc2c(Nc3cc(CC(=O)Nc4cccc(F)c4)[nH]n3)ncnc2c1 [AZD2811] (first compound max 10 µM, 7x7, partner max 1 µM) | 0.171 | 0.235 | 0.415 | 0.221 | 0.251 | 0.211 | 0.199 | 0.624 | 0.425 | 0.181 | 0.642 | 0.525 | 0.226 | 0.173 | 0.462 | 0.314 | 0.683 | 0.472 | 1 | 0.441 |
| NC1(C(=O)N[C@@H](CCO)c2ccc(Cl)cc2)CCN(c2ncnc3[nH]ccc23)CC1 [Capivasertib] + CCN(CCO)CCCOc1ccc2c(Nc3cc(CC(=O)Nc4cccc(F)c4)[nH]n3)ncnc2c1 [AZD2811] (first compound max 10 µM, 7x7, partner max 1 µM) | 0.23 | 0.302 | 0.643 | 0.187 | 0.374 | 0.298 | 0.611 | 0.587 | 0.398 | 0.321 | 0.966 | 0.309 | 0.475 | 0.281 | 0.812 | 0.638 | 0.517 | 0.0827 | 1 | 0.642 |
| C=CCn1c(=O)c2cnc(Nc3ccc(N4CCN(C)CC4)cc3)nc2n1-c1cccc(C(C)(C)O)n1 [AZD1775] + O=C(c1cc(Cc2n[nH]c(=O)c3ccccc23)ccc1F)N1CCN(C(=O)C2CC2)CC1 [Olaparib] (first compound max 1 µM, partner max 10 µM) | 0.694 | 0.842 | 0.602 | 0.22 | 0.317 | 0.258 | 0.599 | 0.488 | 0.644 | 0.756 | 1 | 0.818 | 0.806 | 0.443 | 1 | 0.595 | 0.638 | 0.302 | 0.951 | 0.498 |
| CC(=O)c1c(C)c2cnc(Nc3ccc(N4CCNCC4)cn3)nc2n(C2CCCC2)c1=O [Palbociclib] + Cc1c2c(nn1C)CSCc1cc(n(C)n1)CSc1cc(c3ccccc3c1)OCCCc1c(C(=O)O)n(C)c3c-2c(Cl)ccc13 [AZD5991] (first compound max 10 µM, 7x7, partner max 1 µM) | 0.39 | 0.353 | 0.18 | 0.335 | 0.2 | 0.164 | 0.605 | 0.281 | 0.207 | 0.441 | 0.928 | 0.32 | 0.411 | 0.911 | 0.266 | 0.406 | 0.543 | 0.252 | 1 | 0.393 |
| C=CCn1c(=O)c2cnc(Nc3ccc(N4CCN(C)CC4)cc3)nc2n1-c1cccc(C(C)(C)O)n1 [AZD1775] + C[C@@H]1COCCN1C2=NC(=NC(=C2)C3(CC3)[S@](=N)(=O)C)C4=C5C=CNC5=NC=C4 [AZD6738] (first compound max 1 µM, partner max 10 µM) | 0.948 | 0.891 | 0.766 | 0.409 | 0.476 | 0.502 | 0.72 | 0.588 | 0.892 | 0.93 | 1 | 0.861 | 0.9 | 0.583 | 1 | 0.906 | 0.883 | 0.593 | 0.977 | 0.746 |
| Cc1c2c(nn1C)CSCc1cc(n(C)n1)CSc1cc(c3ccccc3c1)OCCCc1c(C(=O)O)n(C)c3c-2c(Cl)ccc13 [AZD5991] + Cc1cc2ncnn2cc1Nc1ncc2c(n1)n(C1CCOCC1)c(=O)n2C [AZD7648] (first compound max 1 µM, 7x7, partner max 10 µM) | 0.485 | 0.251 | 0.649 | 0.238 | 0.19 | 0.319 | 0.837 | 0.409 | 0.399 | 0.523 | 0.952 | 0.406 | 0.318 | 0.71 | 0.407 | 0.292 | 0.467 | 0.279 | 1 | 0.385 |
| NC1(C(=O)N[C@@H](CCO)c2ccc(Cl)cc2)CCN(c2ncnc3[nH]ccc23)CC1 [Capivasertib] + C[C@@H]1COCCN1C2=NC(=NC(=C2)C3(CC3)[S@](=N)(=O)C)C4=C5C=CNC5=NC=C4 [AZD6738] (first compound max 10 µM, 7x7, partner max 10 µM) | 0.518 | 0.77 | 0.802 | 0.262 | 0.461 | 0.559 | 0.753 | 0.574 | 0.457 | 0.842 | 1 | 0.688 | 0.79 | 0.349 | 0.959 | 0.869 | 0.779 | 0.469 | 0.99 | 0.858 |
